Experimental data: patent US12383527B2, “Methods for treating triple negative breast cancer using salvianolic acid B” (HOWARD UNIVERSITY, priority 2018, dated 2025)

How the values were obtained:
[1] = tested on: survivin; experiment: Western blot of survivin expression in MDA and MCF-7 cells; type: cell-based, human; settings: Sal-B 50 μM and 100 μM, 24 hours
Method: (§1) The immunohistochemical results were consistent with those from Western blotting (FIG. 7, panel A). Western blot analysis was used to determine the expression of apoptosis-related proteins Bcl-XL, survivin, caspase-3 and caspase-8 (FIG. 7, panel A). β-actin was used as an internal control for Western blotting. The MCD-7 and MDA cells were treated with Sal-B (50 μM and 100 μM) and doxorubicin (0.1 μM and 1 μM), respectively, for 24 hours. Proteins were extracted from the cells with RIPA lysis buffer (Santa Cruz Biotechnology, Santa Cruz, CA) and the protein concentrations were quantified with Bio-Rad protein quantification kit. Whole-cell proteins were separated on 8% SDS-polyacrylamide gel, transferred to the polyvinylidene difluoride membrane (Bio-Rad), and then probed with the indicated primary antibodies overnight at 4° C. Washed blots were then incubated with horseradish peroxidase-conjugated anti-rabbit, anti-mouse, or anti-goat antibody (Santa Cruz Biotechnology), respectively, for one hour at room temperature. Blots were developed and visualized with ECL detection system (Bio-Rad).

[2] = tested on: Bcl-xL; experiment: Immunohistochemical staining of Bcl-xL in MDA tumor xenografts; type: in vivo, athymic nude mice; settings: Sal-B 80 mg/kg three times per week; untreated tumors 11.8±3.0; P<0.05
Method: Human tumor xenografts in athymic nude mice. […] The animal protocol was approved by the Howard University Animal Care and Use Committee. Four-week-old female athymic nude mice (Nu/Nu) were obtained from Harlan Sprague Dawley (Indianapolis, IN). All mice were provided the Harlan Teklad #2018 Global 18% protein rodent diet and water ad libitum. Mice were housed in temperature-controlled rooms (74±2° F.) with a 12-hour alternating light-dark cycle. MDA cells (3×10^6/50 μL/spot) were subcutaneously injected into the both sides of lower back of mice using a 27-gauge needle. […]
Immunohistochemical staining was performed as described previously (Hao Y, et al., “Enforced expression of miR-101 inhibits prostate cancer cell growth by modulating the COX-2 pathway in vivo,” Cancer Prev Res (Phila), 2011; 4: 1073-1083). […] For the quantification, ten high-magnification (40×) fields were randomly selected from each slide of tumors and the positive cells were counted. The protein expression was expressed as the average number of positive cells per high magnification field.

[3] = tested on: ceramides; experiment: Ceramide levels in MDA cells by flow cytometry; type: cell-based, human; settings: Sal-B 50 μM, 24 hours
Method: Ceramide levels were further analyzed with flow cytometry, according to the method described above, through comparison of Sal-B treated and untreated MDA cells. MDA cells were treated with 50 μM and 100 μM of Sal-B, respectively, for 24 hours and ceramide levels were then analyzed by flow cytometry.
Similarly, immunohistochemistry was carried out, as generally described above, to evaluate the expression of ceramides in MDA tumor xenografts (FIG. 9, panel C). The fixed cells were sequentially incubated with anti-ceramide primary antibody (1:100) for 2 hours and PE-labeled secondary antibody (1:200) for 30 minutes, and the ceramide positive cells were counted (FIG. 9, panel B).

[4] = tested on: MDA-MB-231 cells; experiment: Luciferase assay (bioluminescent cell viability); type: cell-based, human
Method: (§2) Cell lines and culture. MCF-7 and MDA human breast cancer cell lines stably transfected with firefly luciferase gene were purchased from Caliper Life Sciences (Hanover, MD). MCF-7 cells were cultured in DMEM medium (Invitrogen, Carlsbad, CA) and MDA cells were grown in DMEM/F-12 (1:1) medium (Invitrogen). Both media were supplemented with 10% fetal bovine serum (Invitrogen) and antibiotic-antimycotic mixture (100 IU/ml penicillin and 100 μg/ml streptomycin; Cellgro). The cells were maintained at 37° C. in 5% CO2. All experiments were performed when the cells were in the logarithmic phase of growth. Luciferase assay. The MDA cell line and the hormone receptor-positive MCF-7 cell line were utilized to test the effectiveness of Sal-B and doxorubicin on cancer cell viability. Both cell lines had been stably transfected and expressed the firefly luciferase gene. The bioluminescent signal intensity reflects the cell metabolic activity, being highly correlated with the cell viability. Cell viability was evaluated using the sensitive bioluminescent optical imaging. The cells (10,000 per well) were seeded in flat-bottomed 96-well plates in the above-identified medium with 10% fetal bovine serum and allowed to grow overnight. The old medium was then replaced with fresh medium containing different concentrations of Sal-B (50, 100, 150, and 200 μM) or doxorubicin (0.1, 0.2, 0.5, and 1 μM). The cells were further cultured for 24 hours and D-luciferin was added to each well and mixed gently (final concentration of 150 μ/ml). The signal was measured with the Xenogen IVIS 200 imaging system (Caliper Life Sciences, Hopkinton, MA, USA). The system was equipped with a highly sensitive, cooled charge-coupled device (CCD) camera and a light-tight specimen box. Imaging and quantification of signals was controlled by the acquisition and analysis software Living Image 3.0. The bioluminescent signal from the cells in each well was expressed as total flux (photons per second (p/s)). At least five replicates were performed in each experiment, and each experiment was repeated at least three times. The representative data are presented.

[5] = tested on: MCF-7 cells; experiment: Luciferase assay (bioluminescent cell viability); type: cell-based, human; settings: Homo sapiens
Method: as §2

[6] = tested on: glucosylceramide synthase (GCS); experiment: Western blot of GCS expression in MDA and MCF-7 cells; type: cell-based, human; settings: for GCS protein level (normalized to β-actin): Sal-B 50 μM; for GCS expression, further effect versus 50 μM: Sal-B 100 μM
Method: as §1
To understand the mechanism underlying increased ceramide accumulation, the expression levels of GCS and GM3 synthase were measured by Western blot analysis in MDA and MCF-7 cells treated by various concentrations of Sal-B (FIG. 8). The amount of protein expression was normalized by the expression of the internal control β-actin. […] Sal-B was found effective to down-regulate GCS and GM3 synthase expression in cancer cells.

O=C(/C=C/c1ccc(O)c2c1[C@H](C(=O)O[C@H](Cc1ccc(O)c(O)c1)C(=O)O)[C@@H](c1ccc(O)c(O)c1)O2)O[C@H](Cc1ccc(O)c(O)c1)C(=O)O [Sal-B, Salvianolic acid B]
survivin protein expression ([1]; MCF-7 cells): downregulated | survivin protein expression ([1]; MDA cells): downregulated | expression of Bcl-xL in tumors [2]: 1.3±0.4 positive cells per high magnif | ceramide level by flow cytometry [3]: sufficient to enhance the ceramide level | viability at 100 µM ([4]; Homo sapiens, MDA-MB-231, 24 h, read-out: cell viability compared with untreated cells): 69% | IC50 ([4]; Homo sapiens, MDA-MB-231, MDA cells, 24 hours, read-out: half maximal inhibitory concentration (IC50), cell viability): 125 µM | difference in inhibitory effect on cell viability between MDA and MCF-7 cells ([4]; Sal-B 50-200 μM, 24 hours): No significant difference | viability at 100 µM ([5]; MCF7, 24 h, read-out: cell viability compared with untreated cells): 65% | IC50 ([5]; MCF7, MCF-7 cells, 24 hours, read-out: half maximal inhibitory concentration (IC50), cell viability): 120 µM | GCS protein level (normalized to β-actin) ([6]; MCF-7 cells): sufficient to inhibit GCS protein level | GCS expression, further effect versus 50 μM ([6]; MCF-7 cells): No further inhibitory effect | GCS protein level (normalized to β-actin) ([6]; MDA cells): sufficient to inhibit GCS protein level | GCS expression, further effect versus 50 μM ([6]; MDA cells): No further inhibitory effect
